{"source": "patent US9902684B2", "about": "“Compound isolated from Isodon forrestii var. forrestii and preparation method and applications thereof” (JIANGSU PROVINCE INSTITUTE OF TRADITIONAL CHINESE MEDICINE, priority 2016, dated 2018)", "key": {"[1]": {"tested_on": "tumor cells (liver cancer, breast cancer, lung cancer, osteosarcoma, melanoma, cervical cancer cell)", "experiment": "MTT experiment, growth inhibition of various tumor cells", "type": "cell-based", "conditions": "Homo sapiens; all tested tumor cells; FIG. 2", "description": "(§1) Dissolving Iso A (purity >99%) in DMSO, and preserving stock solution with concentration of 40 mM in −20° C. Detecting the inhibition effects of Iso A in various cells that includes liver cancer cell, breast cancer cell, lung cancer cell, osteosarcoma cell, melanoma cell, cervical cancer cell etc., and in normal human hepatocyte L02, human embryo lung cell HFL1, human mammary epithelial cell MCF 10A. […] Among tested cells, HepG2 cell is the most sensitive to Iso A, thus HepG2 is selected as a model in follow-up experiments."}, "[2]": {"tested_on": "hepatocellular carcinoma cell line HepG2", "experiment": "MTT assay, HepG2 cell growth", "type": "cell-based, human", "conditions": "various concentrations, 24 hours; FIG. 3", "description": "as §1"}, "[3]": {"tested_on": "human normal hepatic cell line L02", "experiment": "MTT assay, normal hepatic cell L02 growth", "type": "cell-based", "conditions": "various concentrations, 24 hours; FIG. 3", "description": "as §1"}, "HepG2 cells": {"tested_on": "HepG2 cells", "experiment": "Trypan blue exclusion assay, HepG2", "type": "cell-based, human", "conditions": "various concentrations, 24 hours; FIG. 4", "description": "as §1"}, "[4]": {"tested_on": "human normal hepatic cell L02", "experiment": "Trypan blue exclusion assay, normal cells", "type": "cell-based", "conditions": "various concentrations, 24 hours; FIG. 4", "description": "as §1"}, "HepG2 cell": {"tested_on": "HepG2 cell", "experiment": "Annexin V flow cytometry analysis of apoptosis", "type": "cell-based, human", "conditions": "FIG. 5", "description": "as §1"}, "HepG2 xenograft": {"tested_on": "HepG2 xenograft", "experiment": "Murine xenograft tumor model of hepatocellular carcinoma", "type": "in vivo, BALB/c nude mouse", "conditions": "15 mg/kg once daily, 15 days, vs control group", "from_the_text": "• a) Cell line: Human hepatocellular carcinoma cell line HepG2 is bought from the Cell Bank of Chinese Academy of Sciences for Type Culture Collection • b) Animal: 20 BALB/c male nude mouse with weight of (13±2 g), the BALB/c mice is bought from Model Animal Research Center of Nanjing University, the animal is bred under the environment without a special pathogen in the Animal Center of Jiangsu Traditional Chinese Medicine Research Institution [SCXK( ? ) 2002-0001]. • c) Pharmaceutical: Iso A 2. Experiment Method: • a) Make of a murine xenograft model ofepatocellular carcinoma: HepG2 cells in log phase are digested with trypin, and suspended with a final density of 2×10^7 cells/ml. Then, 200 μl (100 μl cells+100 μl matrigel) cell suspension is inoculated into the right subaxillary of nude mice with 1 ml injector. • b) Group and administration of experimental animal: grouping when the tumor becomes 100 mm^3 into 10 per group (same average volume per group, too big or small ones are eliminated). Grouping specifically as followings: (1) Iso A 15 mg/kg dose group, (2) solvent control group (0.5% CMC-Na). […] Antitumor effect is determined by tumor inhibition rate. […]"}, "[5]": {"experiment": "Toxicity assessment in xenograft mice (weight, serum indices, blood routine)", "type": "in vivo, BALB/c nude mouse", "conditions": "15 mg/kg", "from_the_text": "• a) Cell line: Human hepatocellular carcinoma cell line HepG2 is bought from the Cell Bank of Chinese Academy of Sciences for Type Culture Collection • b) Animal: 20 BALB/c male nude mouse with weight of (13±2 g), the BALB/c mice is bought from Model Animal Research Center of Nanjing University, the animal is bred under the environment without a special pathogen in the Animal Center of Jiangsu Traditional Chinese Medicine Research Institution [SCXK( ? ) 2002-0001]. • c) Pharmaceutical: Iso A 2. Experiment Method: • a) Make of a murine xenograft model ofepatocellular carcinoma: HepG2 cells in log phase are digested with trypin, and suspended with a final density of 2×10^7 cells/ml. Then, 200 μl (100 μl cells+100 μl matrigel) cell suspension is inoculated into the right subaxillary of nude mice with 1 ml injector. • b) Group and administration of experimental animal: grouping when the tumor becomes 100 mm^3 into 10 per group (same average volume per group, too big or small ones are eliminated). Grouping specifically as followings: (1) Iso A 15 mg/kg dose group, (2) solvent control group (0.5% CMC-Na). Administrate one time every day for total 15 days. • c) Sample selection and index observation: • i. observation for normal state: before drug administration, measure the weight and tumor size (tumor volume V=long diameter×short diameter^2/2) one time every day. Observe the locomotor activity, mental state, hair, breath, diet, manure trait and reaction to outside world of the mice. After ending pharmaceutical interference, the mice are anesthetized and the blood is acquired by cardiac puncture. The serum is got by centrifugation and store in −80° C. After the skin of the tumor growing part on the right axilla of the mice is nipped by forceps, use a surgical scissors to cut the skin for exposing the tumor, then use the surgical scissors to dissect the tumor with blunt dissection and use a scale to weigh the tumor, transplanted tumor and calculate the inhibition rate. Antitumor effect is determined by tumor inhibition rate. Tumor inhibition rate (%)=[1−(average weight of tumor in experimental group/average weight of tumor in control group)]×100% • ii. Detecting apoptosis of tumor tissues with TUNEL staining: according to TUNEL apoptosis detection kit specification of Roche Inc. after fixing frozen tissue section in room temperature. • iii. Blood routine examination for assessing the marrow toxicity of Iso A, analyze ALT, AST, ALP level in plasma for assessing hepatotoxicity of Iso A, and measure the creatinine and urea nitrogen for assessing renal damage.\nFabricate mice transplanted hepatocellular carcinoma model, and group mice into control group and Iso A (15 mg/kg) administration group at random. Record the weight and tumor size one time every three days and kill the mice after 15-day-administration for detection and analysis of the tumor tissues, blood etc."}, "Trx1 [6]": {"target": "T1, Trx1 (Homo sapiens, UniProt P10599)", "T1 sequence (P10599 1-105)": "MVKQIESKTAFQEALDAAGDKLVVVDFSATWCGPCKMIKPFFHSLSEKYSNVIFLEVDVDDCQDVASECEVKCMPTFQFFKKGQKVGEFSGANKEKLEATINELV", "experiment": "In vitro Trx1 activity, Thioredoxin Activity Fluorescent Assay Kit", "type": "biochemical", "set-up": "purchased Sino Biological Inc", "conditions": "read-out: inhibition rate of Trx1 activity", "description": "Trx1 protein was bought from Sino Biological Inc., Trx1 activity detection kit was bought from American Caymen Chemical cooperation.\nThe in vitro activity of Trx is assayed using the—Thioredoxin Activity Fluorescent Assay Kit (Caymen Chemical). According to the instructions of the kit 2 μl of Iso A with different concentrations (0.195 μM to 100 μM) is added into 0.02 μM Trx mix, following by adding 5 μl of β-NADPH into each sample to incubate in 37° C. for 30 min. Then, a fluorescent substrate is added and Trx1 activity is was recorded as the emission at 518 nm after 488 nm excitation for 30-60 min, with a Thermo Scientific Varioskan Flash fluorescent microplate reader."}, "Trx1 [7]": {"target": "T1, Trx1", "experiment": "Mass spectrometry analysis of direct conjugation with Trx1 protein", "type": "binding", "set-up": "purchased Sino Biological Inc", "conditions": "2 h room temperature, MALDI mass spectrometry; FIG. 8", "description": "Human-derived Trx1 protein (Sino Biological Inc.) is dissolved in distilled water at a 5 mg/ml and stored. In 25 mM Tris-HCl (pH 7.4) buffer, mixi 4 μl Iso A with 140 μl human Trx1 protein to incubate for 2 h in room temperature. Samples after reaction is treated by Shimadzu Biotech Proteome kit for enzymatic hydrolysis with MonoSpin Trypsin, then desalted by MonoSpin® C18 column for mass spectrometry analysis with MALDI 7090 (SHIMADZU)."}, "Trx1 [8]": {"target": "T1, Trx1", "experiment": "Trx1 activity in HepG2 cells (insulin reduction/DTNB)", "type": "cell-based", "set-up": "endogenous in cells; host or cells: HepG2", "conditions": "10-30 μM for 8 hours; relative to 0.5% DMSO control; FIG. 7", "description": "(§2) Methods for measuring Trx1 activity in cells or tissue samples: using lysates (20 mM HEPES (pH 7.9), 300 mM NaCl, 100 mM KCl, 10 mM EDTA and 0.1% Nonidet P-40, protease-contained inhibitor) to lyse the cells or tissue samples. Pre-treating 90 μg protein at 37° C. for 15 min by using DTT activation buffer (50 mmol/liter HEPES (pH 7.6), 1 mmol/liter EDTA, 1 mg/ml bovine serum albumin, and 2 mmol/liter dithiothreitol). Then adding 20 μl reaction mixture (200 μl of 1 M HEPES (pH 7.6), 40 μl of 0.2 mol/liter EDTA, 40 μl of NADPH (40 mg/ml)) and 500 μl insulin. Adding 5 μl thioredoxin reductase for initial reaction while adding water of same volume into the control group. Incubate the samples in 37° C. for 20 min, and then add 6 M guanidine hydrochloride of 0.25 ml and 0.4 mg/ml DTNB to terminate reaction. Detecting optical absorption of 412 nm.\nCultivate human hepatocellular carcinoma cell line HepG2 in vitro culture. […] Calculate the relative activity of Trxl in each group under the condition that negative control activity is 1."}, "Trx1 [9]": {"target": "T1, Trx1", "experiment": "Trx1 activity in xenograft tumor tissues", "type": "in vivo, BALB/c nude mouse", "set-up": "from tissue; host or cells: HepG2 xenograft tumor from BALB/c nude mice", "conditions": "15 mg/kg once daily, 15 days; FIG. 12", "description": "as §2, with “Detecting optical absorption of 412 nm.” left out\n• a) Cell line: Human hepatocellular carcinoma cell line HepG2 is bought from the Cell Bank of Chinese Academy of Sciences for Type Culture Collection • b) Animal: 20 BALB/c male nude mouse with weight of (13±2 g), the BALB/c mice is bought from Model Animal Research Center of Nanjing University, the animal is bred under the environment without a special pathogen in the Animal Center of Jiangsu Traditional Chinese Medicine Research Institution [SCXK( ? ) 2002-0001]. • c) Pharmaceutical: Iso A 2. […] Antitumor effect is determined by tumor inhibition rate. […]"}}, "note": "Residues, ends and D or L forms follow the SMILES beside them. *: point of attachment. Cbz = O=C(OCc1ccccc1)*; CH2F = FC*", "data": [{"molecule": "C=C1C(=O)[C@]23C[C@H]1[C@@H](OC(C)=O)[C@H](OC(C)=O)[C@H]2[C@]1(C)C[C@H](OC(C)=O)[C@H](OC(C)=O)C(C)(C)[C@H]1[C@@H](O)C3", "note": "[Iso A, Isoforresin A]", "values": [{"measurement": "IC50", "setting": "[1]", "result": "< 30", "unit": "µM"}, {"measurement": "inhibition of HepG2 cell growth (MTT)", "setting": "[2]", "result": "inhibit the growth of HepG2 cell in a concentration-dependent manner"}, {"measurement": "inhibition of L02 cell growth (MTT)", "setting": "[3]", "result": "no obvious inhibitory effects"}, {"measurement": "cell death of HepG2 cells (trypan blue exclusion)", "setting": "HepG2 cells", "result": "selectively trigger the death of HepG2 cells"}, {"measurement": "toxicity to normal cells (trypan blue exclusion)", "setting": "[4]", "result": "obviously not toxic"}, {"measurement": "Annexin V positive cells (apoptosis)", "setting": "HepG2 cell; HepG2, 10 or 20 μM Iso A, 24 hours", "result": "increasement of Annexin V positive cells"}, {"measurement": "tumor volume", "setting": "HepG2 xenograft; FIG. 10", "result": "significantly decreased"}, {"measurement": "tumor weight", "setting": "HepG2 xenograft; FIG. 11", "result": "significantly decreased"}, {"measurement": "toxic or side effects on marrow, liver and kidney", "setting": "[5]; 15 days, xenograft murine model", "result": "no toxic or side effects"}, {"measurement": "ALP level in serum", "setting": "[5]; 15 days, FIG. 13", "result": "no obvious difference"}, {"measurement": "ALT level in serum", "setting": "[5]; 15 days, FIG. 13", "result": "no obvious difference"}, {"measurement": "AST level in serum", "setting": "[5]; 15 days, FIG. 13", "result": "no obvious difference"}, {"measurement": "creatinine level in serum", "setting": "[5]; 15 days, FIG. 14", "result": "no obvious difference"}, {"measurement": "urea nitrogen level in serum", "setting": "[5]; 15 days, FIG. 14", "result": "no obvious difference"}, {"measurement": "body weight of mice", "setting": "[5]; during administration, vs control group, FIG. 9", "result": "no difference in weight"}, {"measurement": "inhibition at 2.5 µM", "setting": "Trx1 [6]", "result": 20, "unit": "%"}, {"measurement": "inhibition at 5 µM", "setting": "Trx1 [6]", "result": 48.6, "unit": "%"}, {"measurement": "inhibition at 10 µM", "setting": "Trx1 [6]", "result": 98, "unit": "%"}, {"measurement": "direct binding/conjugation with Trx1 protein (Cys 32/35)", "setting": "Trx1 [7]", "result": "can directly bind with Trx1 protein"}, {"measurement": "Trx1 activity in HepG2 cells", "setting": "Trx1 [8]", "result": "significantly reduced"}, {"measurement": "Trx1 activity in the tumor tissues", "setting": "Trx1 [9]", "result": "significantly decreased"}]}, {"molecule": "COC(=O)C[C@H](NC(=O)[C@H](C)NC(=O)[C@@H](NC(=O)OCc1ccccc1)C(C)C)C(=O)CF", "note": "[Z-VAD-FMK, reference compound] (Cbz-Val-Ala-Asp(OMe)-CH2F)", "values": [{"measurement": "effect of pan-caspase inhibitor on apoptosis induced by Iso A", "setting": "HepG2 cell; HepG2", "result": "partially inhibits the apoptosis induced by Iso A"}]}]}
